Here are results for three compounds from US20070205140A1, “Method of Removing Sulfides Including Hydrogen Sulfide and Mercaptan” (K - I CHEMICAL INDUSTRY CO., LTD., priority 2004, published 2007).

A short description of experiment [1]: Test Example 1: removal of hydrogen sulfide from hexane, FPD gas chromatography. Particulars: for Test sample A Hydrogen sulfide concentration: 100 ppm hydrogen sulfide, 100 ppm compound; for effect of removing hydrogen sulfide (in words): summary of Table 1. As for the experimental part:
Two 200-ml four-neck flasks were provided. Hexane (100 ml) was placed in the flask equipped with a bubbling device. In the other flask, iron sulfide underwent a reaction with the dropwise addition of hydrochloric acid, resulting the generation of hydrogen sulfide. Then, hexane was subjected to bubbling with hydrogen sulfide that had been transferred via a tube. Thus, test samples at a hydrogen sulfide concentration of 100 ppm were prepared. The measurement of hydrogen sulfide concentration was carried out by FPD gas chromatography (using a flame photometric detector). Stock solution of BNPA, DBNE, and BNP (100 ppm each) were separately added to the test samples, followed by stirring for a given period of time. The hydrogen sulfide concentration of each sample was measured in a time-dependent manner.

Experiment [2] can be described thus: Test Example 2: removal of methyl mercaptan gas by formulation in closed bag, detector tube. Particulars: for Methyl mercaptan gas concentration: 1 ml formulation, methyl mercaptan gas at 500 ppm; for effect of removing methyl mercaptan (in words): summary of Table 2. As for the experimental part: A formulation containing BNPA was previously prepared in accordance with Formulation example 1. With the use of DBNE and BNP instead of BNPA, formulations containing DBNE and BNP, respectively, were prepared, in accordance with formulation example 1. Each formulation (1 ml) was dispensed into a glass petri dish covered with a plastic bag. Then, each plastic bag was closed after being filled with methyl mercaptan gas at 500 ppm. The methyl mercaptan gas was allowed to come into contact with the formulation for a given time. Thereafter, the methyl mercaptan gas concentration was measured using a detector tube.

Experiment [3] in a line: Test Example 3: removal of hydrogen sulfide dissolved in water, methylene blue colorimetric method. To be noted: for removal of hydrogen sulfide dissolved in water (in words): summary of Table 3; for Residual hydrogen sulfide concentration: water, test compound 500 ppm, stirring for 10 minutes, ND = complete removal. As for the experimental part: Distilled water was bubbled with hydrogen sulfide gas. Thus, a hydrogen sulfide-dissolved solution (5 mgS/l) was prepared. The solution was placed in separate beakers. Then, formulations that were prepared in accordance with Test example 2 were separately added thereto in a manner such that the concentration of each test compound became 500 ppm, followed by stirring for 10 minutes. Thereafter, the residual hydrogen sulfide concentration was measured. The measurement was carried out using “Pack Tests” (Kyoritsu Chemical-Check Lab., Corp.) in accordance with a methylene blue colorimetric method.

Experiment [4] can be described thus: Test Example 4: removal of hydrogen sulfide gas by formulation in closed bag, detector tube. Particulars: for Hydrogen sulfide concentration: 1 ml formulation, 1 liter hydrogen sulfide gas at 500 ppm; for removal of hydrogen sulfide gas (in words): summary of Table 4. As for the experimental part:
A formulation containing BNPA was previously prepared in accordance with Formulation example 1. With the use of BNP instead of BNPA, a formulation containing BNP was prepared in accordance with formulation example 1.
Iron sulfide and hydrochloric acid were allowed to react with each other, resulting in the generation of hydrogen sulfide. Thus, hydrogen sulfide gas at a concentration of 500 ppm was prepared. Each formulation (1 ml) was placed in a glass petri dish covered with a plastic bag. Then, each plastic bag was closed after being filled with 1 liter of hydrogen sulfide gas. At 24 and 48 hours later, the hydrogen sulfide gas concentration was measured using a detector tube.

Experiment [5] can be described thus: Test Example 5: removal of hydrogen sulfide dissolved in water, 30 minutes stirring, methylene blue colorimetric method. To be noted: for residual hydrogen sulfide (in words): summary of Table 5. As for the experimental part: Distilled water was bubbled with a hydrogen sulfide gas. Thus, a solution containing dissolved hydrogen sulfide (5 mgS/l) was prepared. The solution was placed in separate beakers. Then, formulations that were prepared in accordance with Test example 4 were separately added thereto in a manner such that the concentration of each test compound became 500 ppm, followed by stirring for 30 minutes using a stirrer. Thereafter, the residual hydrogen sulfide concentration was measured. The measurement was carried out using “Pack Tests” (Kyoritsu Chemical-Check Lab., Corp.) in accordance with a methylene blue colorimetric method.

On to `O=[N+]([O-])C(Br)(CO)CO` [BNP, 2-bromo-2-nitro-1,3-propanediol], for which the “Test sample A Hydrogen sulfide concentration” value was determined as 100 ppm in experiment [1] (contact time 0 minutes), 81 ppm in experiment [1] (contact time 10 minutes), 77 ppm in experiment [1] (contact time 30 minutes) and 68 ppm in experiment [1] (contact time 60 minutes). The “effect of removing hydrogen sulfide (in words)” value in experiment [1] is given as “the removal efficiency was poor”. The “Methyl mercaptan gas concentration” value is listed as 500 ppm in experiment [2] (contact time 0 hours), 485 ppm in experiment [2] (contact time 24 hours) and 461 ppm in experiment [2] (contact time 48 hours). In addition, in experiment [2], the “effect of removing methyl mercaptan (in words)” value is given as “almost no effect of removing methyl mercaptan”. In addition, the “removal of hydrogen sulfide dissolved in water (in words)” value (from here on “removal of hydrogen sulfide dissolved”) in experiment [3] is listed as “very low capacity for removing hydrogen sulfide”. For the same compound, the “Residual hydrogen sulfide concentration” value in experiment [3] is reported as 18 mgS/l; in experiment [5] (water 5 mgS/l, test compound 500 ppm, stirring for 30 minutes, ND = no hydrogen sulfide observed), 1 mgS/l. In addition, the Hydrogen sulfide concentration worked out at 500 ppm in experiment [4] (contact time 0 hours), 480 ppm in experiment [4] (contact time 24 hours) and 470 ppm in experiment [4] (contact time 48 hours). Further, in experiment [4], the “removal of hydrogen sulfide gas (in words)” value is “complete removal was not achieved”. Further, in experiment [5], the “residual hydrogen sulfide (in words)” value is listed as “residual hydrogen sulfide was observed”.
With `CC(=O)OCC(Br)(COC(C)=O)[N+](=O)[O-]` [BNPA, 2-bromo-2-nitropropane-1,3-diyl diacetate], the “Test sample A Hydrogen sulfide concentration” value in experiment [1] (contact time 0 minutes) is 100 ppm; in experiment [1] (contact time 10 minutes) it was 38 ppm; in experiment [1] (contact time 30 minutes), 14 ppm; in experiment [1] (contact time 60 minutes) it was 2 ppm. The “effect of removing hydrogen sulfide (in words)” value in experiment [1] was “had an effect of removing hydrogen sulfide”. Moreover, the “Methyl mercaptan gas concentration” value is 500 ppm in experiment [2] (contact time 0 hours), 283 ppm in experiment [2] (contact time 24 hours) and 0 ppm in experiment [2] (contact time 48 hours). Further, the “effect of removing methyl mercaptan (in words)” value in experiment [2] is on record as “complete removal of methyl mercaptan gas was achieved after 48 hours”. In addition, the “removal of hydrogen sulfide dissolved” value in experiment [3] is on record as “complete removal of hydrogen sulfide”. Moreover, the Hydrogen sulfide concentration was 500 ppm in experiment [4] (contact time 0 hours), 210 ppm in experiment [4] (contact time 24 hours) and 0 ppm in experiment [4] (contact time 48 hours). In experiment [4], the “removal of hydrogen sulfide gas (in words)” value is “complete removal of hydrogen sulfide was achieved after 48 hours”. Also, in experiment [5], the “residual hydrogen sulfide (in words)” value was “no hydrogen sulfide was observed”.
As for `O=[N+]([O-])C(Br)(Br)CO` [DBNE, 2,2-dibromo-2-nitroethanol], the “Test sample A Hydrogen sulfide concentration” value is recorded as 100 ppm in experiment [1] (contact time 0 minutes), 42 ppm in experiment [1] (contact time 10 minutes), 25 ppm in experiment [1] (contact time 30 minutes) and 11 ppm in experiment [1] (contact time 60 minutes). The “effect of removing hydrogen sulfide (in words)” value in experiment [1] is “had an effect of removing hydrogen sulfide”. Besides, the results for the “Methyl mercaptan gas concentration” value in experiment [2] (contact time 0 hours), in experiment [2] (contact time 24 hours) and in experiment [2] (contact time 48 hours) were 500 ppm, 358 ppm and 29 ppm, respectively. The “effect of removing methyl mercaptan (in words)” value in experiment [2] was “confirmed to have the effect of removing methyl mercaptan”. Further, in experiment [3], the “removal of hydrogen sulfide dissolved” value was “confirmed to have an effect of removing hydrogen sulfide”. The “Residual hydrogen sulfide concentration” value in experiment [3] was found to be 5 mgS/l.
